# Source: US9056048B2, “Synthesis and use of cationic steroids for anti-inflammatory drug therapy” (priority 2001, dated 2015)
# Columns and labels:
# [1] = system: bovine aortic endothelial cells; test: Lipofection of BAEC with EGFP plasmid; type: cell-based; conditions: alone, unconjugated
# Procedure: Bovine aortic endothelial cells (BAEC, passage 4-13) were passaged at a 1:3 split to 24-well culture plates, and then grown to dense confluence before lipofection. Growth medium was Dulbecco's modified Eagle's medium (DMEM) containing 10% heat inactivated charcoal-filtered (to remove steroid hormones) fetal calf serum (Hyclone), 0.30 mg/ml glutamine, 150 U/ml penicillin, and 0.15 mg/ml streptomycin (Gibco). 293 cells were grown under identical conditions. The plasmids pEGFP-N3 and pGRE-SEAP (Clontech) were used for expression of EGFP or secreted alkaline phosphatase under the regulation of CMV or GRE promoters, respectively. […] In other experiments, Lipofectamine 2000 (Invitrogen), in a 1:1 (wt) ratio with nucleic acid, was used according to the manufacturer's instructions.
# For fluorescence microscopy and flow cytometry, pEGFP-N3 plasmid (Clontech, Palo Alto, Calif.) was used to generate GFP as the fluorescent reporter transgene protein. Cells were transfected in 6-well plates with each condition in duplicate. One day after GFP transfection, cells were imaged and then harvested in 500 ul PBS and kept on ice until analysis. A BD Biosciences (Franklin Lakes, N.J.) FACSCalibur flow cytometer was used to obtain fluorescence data with 50,000 counts recorded per condition.
# EGFP expression was calibrated using 0 to 200 ng recombinant GFP (Clontech) in 750 μl PBS. […]
# [2] = Hyaluronic acid release assay (dialysis)
# Procedure: Hyaluronic acid sodium salt (Rooster Comb HA; Sigma) was diluted in PBS at 1 mg/ml to mimic an anionic glycosaminoglycan at a nominal interstitial concentration.
# [3] = system: GRE promoter construct (pGRE-SEAP); test: Induction of transcription from GRE (GRE-SEAP promoter construct) in 293 cells; type: cell-based
# Procedure: 293 cells were lipofected with GRE-SEAP plasmid in triplicate using 1 μg plasmid and 6 μg Lipofectamine per well in 24-well plates. […] After 24 hr of induction, 50 μl aliquots of growth media were analyzed for alkaline phosphatase activity using the SEAP fluorogenic assay following the manufacturer's instructions.
# [4] = system: neutrophils in the i.p. space; test: Thioglycollate (TG) model of inflammation; type: in vivo, BALB/c mice
# Procedure: Male, 6- to 8-week-old (20 g) BALB/c mice, six per group, were used. […] After 30 minutes, mice were injected i.p. with 1.5 mL of 3% TG in PBS containing 1% ethanol. At 4 hour post-TG, the i.p. fluid was collected and neutrophils were counted.
# physchem = conditions: water
# mouse lung = test: AAV vectors co-formulated with DS or DS/D2S, intranasal instillation; type: in vivo, C57Bl/6 mice
# Procedure: Cationic liposomes (DS/D2S) in a 1:1 mole ratio with DOPE (51 μg total lipid) were mixed with AAV (10^11 GC/dose) in equal volume at room temperature for 15 minutes prior to instillation. C57Bl/6 mice (6 to 8 weeks of age) were anesthetized by an i.p. injection of a 3:2 mixture of xylazil:ketamine. For dosing, mice were suspended from their dorsal incisors (hind quarters supported) and a dose of 10^11 GC of AAV vector was delivered as a 50 μl bolus into the nostrils.
# To evaluate luciferase transgene expression, 250 μl of a 15 mg/ml luciferin solution (Caliper Life Sciences, Hopkinton, Mass.) was injected per 25 gram body mass by i.p. injection. Five minutes after luciferin injection the mice were anesthetized by an i.p. injection of a 3:2 mixture of xylazil:ketamine. Animals were imaged 15 minutes after the original luciferin injection with a high sensitivity CCD Xenogen IVIS bioluminescent imaging system (Caliper Life Sciences).
# For lacZ transgene expression evaluation, lungs were harvested and inflated with a 1:1 mixture of PBS and OCT embedding compound. One lobe was then submerged in OCT, frozen in isopentane cooled with liquid nitrogen, and cryosectioned ([…]). Sections were fixed in 0.5% glutaraldehyde in PBS (Electron Microscopy Sciences, Hatfield, Pa.) for 10 minutes (4° C.) and then washed twice in PBS/1 mM MgCl2 (4° C.) and stained with X-gal substrate (5-bromo-4-chloro-3-indoyl-β-D-galactopyranoside) for 16 hours at 37° C. to reveal LacZ-positive cells. After being washed in PBS, sections were counterstained with nuclear fast red, dehydrated through a graded ethanol series and xylene, coverslipped, and imaged. The other lobe was placed in 2 ml of Lysis Buffer (Roche, Indianapolis, Ind.) and placed on ice. Directly after all samples were collected, each sample was homogenized for approximately 10 seconds. […] A mouse β-galactosidase enzyme-linked immunosorbent assay (ELISA) (Roche) was used on lung homogenates according to the manufacturer's instructions to quantitatively measure LacZ gene expression. […]
# osteoblasts = test: In vitro bone culture inflammatory model, qRT-PCR transcripts; type: cell-based, murine; conditions: for reduction in IL-6 transcripts over control: qRT-PCR normalized to GAPDH; for OPG/RANKL ratio: transcripts, qRT-PCR
# Procedure: For co-cultures with osteoblasts, bone marrow cells (1×10^5 cells/well in 96-well plates) were co-cultured with calvarial osteoblasts (1×10^4 cells/well) in α-minimal essential medium containing 10% fetal bovine serum and supplemented with 20 nM 1α, 25(OH)2D3 and 1 μM prostaglandin E2 (PGE2) for 9 days. […] Co-cultures treated with Vitamin D3 (VitD3) were treated at 20 nM.
# For transcript analysis, total RNA was isolated using the Absolutely RNA microprep kit (Stratagene, La Jolla, Calif.). RNA was reverse transcribed using Superscript III reverse transcriptase and oligo(dT) (Invitrogen, Carlsbad, Calif.), and complementary DNA was purified using Qiagen's PCR purification kit (Valencia, Calif.). Complementary DNA from untreated samples was used for optimizing PCR conditions, with primers targeting the gene of interest. For the gene RANKL, the forward primer was 5′-[sequence]-3′ and the reverse primer was 5′-[sequence]-3′, for the OPG gene the forward primer was 5′-[sequence]-3′ and the reverse primer was 5′-[sequence]-3′, for the IL-6 gene the forward primer was 5′-[sequence]-3′ and the reverse primer was 5′-[sequence]-3′. In order to normalize the expression levels, GAPDH was used as a housekeeping gene with forward primer 5′-[sequence]-3′ and reverse primer 5′-[sequence]-3′. A standard curve was created using the untreated controls and the optimized PCR conditions for each set of primers on a Roche LightCycler 480 (Indianapolis, Ind.). Quantitative real-time PCR was performed using the LightCycler FastStart DNA MasterPLUS SYBR Green I kit with melting curve analysis provided by the LightCycler software.
# TNF-α is utilized as an inflammatory cytokine to initiate the NF-κB pathway and subsequent effect on RANKL.
# mouse lungs = test: AdV vector formulated with lipid, intranasal delivery to mouse lungs; type: in vivo, C57Bl/6 mice; design: key: 0 (normal, no inflammation); mild (+) monocytic infiltrate and congestion; +++ (extensive inflammation); conditions: day 7
# Excerpt: E1/E3-deleted replication-deficient, recombinant adenovirus vectors (2-4.5×10^12 GC/ml stock) expressing either a LacZ or a AlkP reporter were created as previously described in Gao et al. (1996, J. Virol. 70:8934-8943) by homologous recombination between the shuttle plasmid that carries the transgene and the 5′ end of the adenovirus genome with E1 deleted and 3′ end of H5.sub360 in which the E3 gene was inactivated by a small deletion. The recombinant viruses were propagated in 293 cells and purified by the standard CsCl gradient sedimentation method. The replication-deficient AAV2/5CBntLacZ contains the LacZ gene with a nucleus localization sequence at its N-terminus, under the transcriptional control of the chicken h-actin promoter. The AAV (2/5) vector (˜2×10^12 GC/ml stock) was produced by transcapsidation in 293 cells using a triple transfection method and purified by CsCl gradient sedimentation as described in Gao et al. (2002, Proc. Natl. Acad. Sci. USA 99:11854-11859).
# C57Bl/6 mice (6 to 8 weeks of age) were anesthetized by an i.p. injection of a 3:2 mixture of xylazil (20 mg/ml):ketamine (100 mg/ml). For dosing, mice were suspended from their dorsal incisors (hind quarters supported) and a dose of 10^11 GC of AdV or AAV vector was delivered as a 50-μl bolus into the nostrils using a gel-loading tip (Finnpippette). […]
molecule,measurement,setting,value
"NCCCNCCCCNCCCN [Spermine, spermine]",gene transfer activity,[1],no detectable gene transfer activity
"CC1C[C@H]2[C@@H]3CCC4=CC(=O)C=C[C@]4(C)[C@@]3(F)C(O)C[C@]2(C)[C@@]1(O)C(=O)CSCCCC(=N)NCCCNCCCCNCCCN.O=C(O)C(F)(F)F (stereo partly drawn) [DS, N-[3-({4-[(3-aminopropyl)amino]butyl}amino)propyl]-4-[(9-fluoro-11,17-dihydroxy-16-methyl-3,20-dioxopregna-1,4-dien-21-yl)sulfanyl]butanimidamide-TFA Salt]",fraction eluted from HA,[2]; 24 hour period,only a small fraction
same,half-life for dissociation from HA,[2]; in PBS,56 h
same,time remaining tightly bound to HA,[2]; physiological salt buffer,over 24 hours
same,SEAP transcription from GRE promoter,"[3]; 100 nM, 293 cells",statistically significant levels of SEAP transcription
same,EC50,"[3]; Homo sapiens, HEK293, read-out: EC50 of transcription from GRE promoter construct (pGRE-SEAP)",10 to 100 nM
same,reduction in neutrophil immigration versus vehicle,"[4]; 5.85 mg/kg i.p. 30 minutes before TG, 4 hour post-TG",60%
same,lethality,[4]; tested dose 5.85 mg/kg i.p.,not lethal
same,solubility,physchem,> 100000 µg/mL
same,lacZ transgene level in lung homogenate compared to control,"mouse lung; AAV2/6.2, ELISA, day 28",higher average transgene levels
same,luciferase luminescence in the lung,"mouse lung; AAV2/9, day 28",minimal luminescence in the lung
same,LacZ gene expression versus AAV2/9-LacZ alone (readministered control),"mouse lung; day 56, formulation at day 0, re-administration day 28",2 fold
same,reduction in IL-6 transcripts over control,osteoblasts,17%
same,OPG/RANKL ratio,osteoblasts,1.67
TNF-α,OPG/RANKL ratio,osteoblasts,0.12
"C[C@@H]1C[C@H]2[C@@H]3CCC4=CC(=O)C=C[C@]4(C)[C@@]3(F)[C@@H](O)C[C@]2(C)[C@@]1(O)C(=O)CO [dexamethasone, reference compound]",solubility,physchem,100 µg/mL
same,reduction in IL-6 transcripts over control,osteoblasts,72%
same,lung inflammation score by blinded pathologist,mouse lungs,0
